Assay results as given in PMC8298633, “Cannabis constituents interact at the drug efflux pump BCRP to markedly increase plasma cannabidiolic acid concentrations” (Scientific Reports, 2021).
Several values for one entry are separate records, joined by “and”; a condition that tells them apart may be missing. Equal values may be shown once.

How the values were obtained:
[1] = Pharmacokinetic study: plasma cannabinoids after single oral gavage of full-spectrum cannabis extract or individual cannabinoid; details: for half-life: t1/2, mouse plasma; for Detection in plasma following oral administration of the full-spectrum extract: single oral dose of extract
Protocol: Drugs were administered by oral gavage in a volume of 5 mL/kg. Wildtype male and female mice (postnatal day 21–28, P21-28) received a single oral gavage of either the full-spectrum cannabis extract or an individual cannabinoid. Cannabinoid doses within the full-spectrum extract or as an individual cannabinoid were as follows in mg/kg: CBDA and Δ^9-THCA, 50; CBD, 25; Δ^9-THC, 15; CBC, 9; CBDVA and CBGA, 7; CBN, 2.5; CBG, 1.5; CBDV and Δ^9-THCV, < 1 (Fig. 1a). At selected time points (15–240 min), mice were anesthetized with isoflurane and whole blood was collected by cardiac puncture. Plasma was isolated by centrifugation (9000 g for 10 min, 4 °C) and stored at − 80 °C until assayed.
Concentrations of cannabinoids in plasma samples were quantified as described previously, [24], [58]. […] The organic layer was isolated by centrifugation (4000 g for 10 min) and evaporated to dryness with N2. Samples were reconstituted in acetonitrile and 0.1% formic acid in water (1:3.3, v/v) for supported-liquid extraction (SLE) with methyl tert-butyl ether (MTBE) using Biotage Isolute SLE+ columns (Uppsala, SWE). […] Quantification of cannabinoids was achieved by comparing samples to standards prepared with known amounts of drug.
Plasma concentrations at each time point were averaged and pharmacokinetic parameters were calculated by noncompartmental analysis. Elimination rate constants were determined by linear regression of the terminal component of the concentration–time curve using GraphPad Prism 8.2 (La Jolla, USA). The log-linear trapezoidal method was used to calculated total drug exposure (area under concentration–time curve) using equations described previously.

[2] = Bidirectional transwell transport assay, wildtype MDCK cell monolayers; details: dog, MDCK
Protocol: (§1) We first aimed to determine whether the cannabinoids found in the full-spectrum cannabis extract were substrates of P-glycoprotein and BCRP by using MDCK cells expressing human P-glycoprotein or BCRP in vitro. Transwell assays were conducted to assess bidirectional transport of the cannabinoids detected in plasma following administration of the full-spectrum cannabis extract (CBD, CBDA, CBDVA, CBGA, Δ^9-THC and Δ^9-THCA), including the respective neutral compounds (CBDV and CBG) across wildtype, BCRP and P-glycoprotein MDCK cell monolayers. […] BCRP and P-glycoprotein preferentially transport substrates in the B > A direction.
(§2) Media in the donor chamber was then replaced with that containing 10 µM of an individual cannabinoid in the presence of either vehicle or inhibitor and returned to 37 °C. Aliquots (25 or 50 µL) were removed from the accepter chamber at 60, 120, 180 and 240 min.
(§3) Cannabinoids were analyzed as described above.

[3] = test system: wildtype MDCK cells; assay: as above; details: wildtype MDCK cells, 10 µM cannabinoid; for P (A > B): apical to basolateral
Protocol: as §1, §2, §3

[4] = target: T1, BCRP (Homo sapiens, UniProt Q9UNQ0); assay: Bidirectional transwell substrate assay, MDCK cells expressing BCRP (with or without elacridar); details: for P (A > B) / P (B > A) / efflux ratio at 240 min, 10 µM / r (transport efflux ratio): BCRP MDCK cells; for P (A > B): apical to basolateral; for P (B > A): basolateral to apical; for BCRP substrate status: human BCRP MDCK cells vs wildtype, with elacridar control; for efflux ratio at 240 min, 10 µM: human, r (transport efflux ratio)
T1 sequence (Q9UNQ0 1-655): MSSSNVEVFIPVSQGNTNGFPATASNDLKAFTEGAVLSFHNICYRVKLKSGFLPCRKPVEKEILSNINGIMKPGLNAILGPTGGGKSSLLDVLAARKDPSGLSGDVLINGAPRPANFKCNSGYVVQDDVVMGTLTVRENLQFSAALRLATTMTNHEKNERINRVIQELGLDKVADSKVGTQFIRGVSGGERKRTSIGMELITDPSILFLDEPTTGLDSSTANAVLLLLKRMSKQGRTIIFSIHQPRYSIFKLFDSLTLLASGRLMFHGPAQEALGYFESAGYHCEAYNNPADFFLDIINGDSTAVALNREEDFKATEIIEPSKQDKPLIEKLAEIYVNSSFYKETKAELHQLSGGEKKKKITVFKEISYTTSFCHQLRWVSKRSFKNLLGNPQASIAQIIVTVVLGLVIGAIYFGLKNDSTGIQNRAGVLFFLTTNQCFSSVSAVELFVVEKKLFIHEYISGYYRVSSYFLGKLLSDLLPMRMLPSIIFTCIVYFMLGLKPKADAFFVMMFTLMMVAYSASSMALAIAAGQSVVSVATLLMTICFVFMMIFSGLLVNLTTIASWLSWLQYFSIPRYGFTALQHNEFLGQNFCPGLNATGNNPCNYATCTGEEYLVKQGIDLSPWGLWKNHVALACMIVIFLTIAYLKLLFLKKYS
Protocol: as §1, §2, §3

[5] = target: P-glycoprotein (Homo sapiens, UniProt P08183); assay: Bidirectional transwell substrate assay, MDCK cells expressing P-glycoprotein; details: for P (A > B): apical to basolateral; for P (B > A): basolateral to apical; for P-glycoprotein substrate status: human P-glycoprotein MDCK cells vs wildtype
Protocol: as §1, §2, §3

[6] = parameters: method as in PMID 33155722; details: healthy individuals, oral cannabis decoction and oil containing 3–6 times the amount of CBDA compared to CBD; cited from earlier work
[7] = target: T1, BCRP; assay: Inhibition of BCRP-mediated transport of CBDA by cannabinoids (transwell, BCRP MDCK cells)
Protocol: Cannabinoids were tested at 10 µM. […] Data are expressed as means ± SEM, with n = 4 per time point. […] Schematic created using BioRender.com.
as §3

[8] = target: T1, BCRP; assay: Inhibition of BCRP-mediated transport of prazosin (transwell, BCRP MDCK cells); details: for Effect on BCRP-mediated transport of prazosin: 10 µM, compared to vehicle
[9] = test system: Bcrp1; details: mouse Bcrp1; cited from earlier work
[10] = both, mouse, plasma, po, AUC, mouse plasma, oral, administered as individual cannabinoid, doses mg/kg: CBD 25, CBDA 50, CBDVA 7, THC 15, THCA 50
[11] = both, mouse, plasma, po, AUC, mouse plasma, oral, administered in full-spectrum extract, doses mg/kg: CBD 25, CBDA 50, CBDVA 7, CBGA 7, THC 15, THCA 50
[12] = both, mouse, plasma, po, oral, administered as individual cannabinoid, doses mg/kg: CBD 25, CBDA 50, CBDVA 7, THC 15, THCA 50
[13] = both, mouse, plasma, po, oral, administered in full-spectrum extract, doses mg/kg: CBD 25, CBDA 50, CBDVA 7, CBGA 7, THC 15, THCA 50
[14] = both, mouse, plasma, po, tmax, mouse plasma, oral, administered as individual cannabinoid, doses mg/kg: CBD 25, CBDA 50, CBDVA 7, CBGA 7, THC 15, THCA 50
[15] = both, mouse, plasma, po, tmax, mouse plasma, oral, administered in full-spectrum extract, doses mg/kg: CBD 25, CBDA 50, CBDVA 7, CBGA 7, THC 15, THCA 50
[16] = with elacridar 10 µM, 10 µM cannabinoid in the presence of 10 µM elacridar
[17] = P-glycoprotein MDCK cells, 10 µM cannabinoid
[18] = mouse plasma, oral, administered as individual cannabinoid, doses mg/kg: CBD 25, CBDA 50, CBDVA 7, THC 15, THCA 50
[19] = mouse plasma, oral, administered in full-spectrum extract, doses mg/kg: CBD 25, CBDA 50, CBDVA 7, CBGA 7, THC 15, THCA 50
[20] = mouse plasma, oral, equivalent doses
[21] = 10 µM cannabinoid, substrate threshold 1.5
[22] = BCRP MDCK cells, cannabinoids tested at 10 µM

P-glycoprotein, sequence (P08183 whole entry): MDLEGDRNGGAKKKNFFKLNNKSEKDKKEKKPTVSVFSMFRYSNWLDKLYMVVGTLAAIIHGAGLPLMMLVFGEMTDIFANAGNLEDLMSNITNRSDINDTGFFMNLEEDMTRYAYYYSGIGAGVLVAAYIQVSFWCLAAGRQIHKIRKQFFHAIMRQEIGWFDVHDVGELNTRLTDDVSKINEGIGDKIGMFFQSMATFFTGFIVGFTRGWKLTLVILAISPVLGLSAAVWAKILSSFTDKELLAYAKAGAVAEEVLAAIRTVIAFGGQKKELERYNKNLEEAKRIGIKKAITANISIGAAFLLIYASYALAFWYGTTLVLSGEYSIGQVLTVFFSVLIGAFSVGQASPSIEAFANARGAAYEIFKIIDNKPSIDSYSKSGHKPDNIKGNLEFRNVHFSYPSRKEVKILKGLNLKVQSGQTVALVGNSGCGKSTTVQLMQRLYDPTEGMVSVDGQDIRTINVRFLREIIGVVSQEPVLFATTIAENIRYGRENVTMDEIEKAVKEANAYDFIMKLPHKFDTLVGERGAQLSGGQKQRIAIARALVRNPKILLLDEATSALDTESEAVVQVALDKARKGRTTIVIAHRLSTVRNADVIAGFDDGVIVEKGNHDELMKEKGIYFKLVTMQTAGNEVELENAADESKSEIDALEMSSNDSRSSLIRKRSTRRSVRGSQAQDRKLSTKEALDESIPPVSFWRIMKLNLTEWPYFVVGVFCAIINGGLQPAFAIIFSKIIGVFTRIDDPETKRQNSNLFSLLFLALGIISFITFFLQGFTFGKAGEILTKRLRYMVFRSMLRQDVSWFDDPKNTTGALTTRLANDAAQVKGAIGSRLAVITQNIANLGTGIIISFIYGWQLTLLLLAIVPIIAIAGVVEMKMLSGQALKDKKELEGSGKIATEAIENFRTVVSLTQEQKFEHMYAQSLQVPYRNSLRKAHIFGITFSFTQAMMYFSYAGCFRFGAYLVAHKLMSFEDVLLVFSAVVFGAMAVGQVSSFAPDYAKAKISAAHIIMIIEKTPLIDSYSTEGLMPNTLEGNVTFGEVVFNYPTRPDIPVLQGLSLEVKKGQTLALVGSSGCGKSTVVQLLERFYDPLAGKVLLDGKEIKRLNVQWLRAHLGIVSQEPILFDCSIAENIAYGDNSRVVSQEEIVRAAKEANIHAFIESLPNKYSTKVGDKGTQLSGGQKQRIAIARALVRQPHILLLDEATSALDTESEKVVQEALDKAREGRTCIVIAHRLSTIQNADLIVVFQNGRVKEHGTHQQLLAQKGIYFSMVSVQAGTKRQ

| SMILES | AUC [1, 10] [ng·h/mL] | AUC [1, 11] [ng·h/mL] | half-life [1, 12] [h] | half-life [1, 13] [h] | tmax [1, 14] [h] | tmax [1, 15] [h] | Detection in plasma following oral administration of the full-spectrum extract ([1]; mouse plasma) | Papp B→A at 240 min, 10 µM [2] [×10⁻⁶ cm/s] | efflux ratio at 240 min, 10 µM [2] | P (A > B) [3] | P (A > B) ([4]; 10 µM cannabinoid) | P (B > A) ([4]; 10 µM cannabinoid) | BCRP substrate status [4] | efflux ratio at 240 min, 10 µM [4, 16] | P (A > B) [5, 17] | P (B > A) [5, 17] | P-glycoprotein substrate status [5] | Total plasma exposure in full-spectrum extract relative to individual compound, fold lower [1, 20] | r (transport efflux ratio) [4, 21] | Effect on BCRP-mediated transport of prazosin [8] | further results |
| --- | --- | --- | --- | --- | --- | --- | --- | --- | --- | --- | --- | --- | --- | --- | --- | --- | --- | --- | --- | --- | --- |
| C=C(C)[C@@H]1CCC(C)=C[C@H]1c1c(O)cc(CCCCC)c(C(=O)O)c1O [CBDA, cannabidiolic acid] | 27300 | 380000 | 3.3 | 5.17 | 1.5 | ≤ 1 | detected | 370 ± 90 | 1.2 ± 0.3 | 31 ± 8 × 10^−5 cm/s | 38 ± 11 × 10^−5 cm/s | 162 ± 24 × 10^−5 cm/s | BCRP substrates | 0.4 ± 0.4 | 24 ± 7 × 10^−5 cm/s | 38 ± 4 × 10^−5 cm/s | not P-glycoprotein substrates |  |  |  | Cmax ([1]; both, mouse, plasma, po, Cmax, mouse plasma, oral, administered as individual cannabinoid, doses mg/kg: CBDA 50, CBDVA 7, CBGA 7): 6000 ± 1000 ng/mL; Cmax ([1]; both, mouse, plasma, po, Cmax, mouse plasma, oral, administered in full-spectrum extract, doses mg/kg: CBDA 50, CBDVA 7, CBGA 7): 47000 ± 4000 ng/mL; Total plasma exposure (AUC) in full-spectrum extract relative to individual compound, fold higher ([1]; mouse plasma, oral, 50 mg/kg, equivalent doses): ~14 × and 14 ×; r (transport efflux ratio) ([5]; P-glycoprotein MDCK cells, 10 µM cannabinoid, substrate threshold 2.5): 1.5 ± 0.3; efflux ratio at 240 min, 10 µM ([5]; human, MDCK-MDR1, r (transport efflux ratio), P-glycoprotein MDCK cells, 10 µM cannabinoid, substrate threshold 2.5): < 2.5; Serum CBDA concentrations relative to serum CBD concentrations [6]: 20–30 times |
| CCCCCc1cc(O)c2c(c1)OC(C)(C)[C@@H]1CCC(C)=C[C@@H]21 [Δ^9-THC, Δ^9-tetrahydrocannabinol, reference compound] |  |  |  |  |  |  | detected |  |  | 9 ± 3 × 10^−5 cm/s | 54 ± 17 × 10^−5 cm/s | 74 ± 28 × 10^−5 cm/s | weak substrates of BCRP |  | 9 ± 3 × 10^−5 cm/s | 4 ± 1 × 10^−5 cm/s | not P-glycoprotein substrates | 2–4 × | 1.4 ± 0.5 | not prazosin transport | tmax ([1]; mouse plasma, oral, administered as individual cannabinoid, doses mg/kg: CBD 25, CBDA 50, CBDVA 7, CBGA 7, THC 15, THCA 50): 1.5 h; AUC [1, 18]: 1930 ng·h/mL; t1/2 [1, 18]: 3.5 h; Cmax ([1]; mouse plasma, oral, administered as individual cannabinoid, doses mg/kg: CBD 25, THC 15, THCA 50): 341 ± 40 ng/mL; AUC [1, 19]: 1030 ng·h/mL; t1/2 [1, 19]: 5.5 h; tmax [1, 19]: ≤ 1 h; tmax ([1]; mouse plasma, oral, administered in full-spectrum extract, doses mg/kg: CBD 25, CBDA 50, CBDVA 7, CBGA 7, THC 15, THCA 50, listed as THC): 1 h; Cmax ([1]; mouse plasma, oral, administered in full-spectrum extract, doses mg/kg: CBD 25, THC 15, THCA 50): 127 ± 15 ng/mL; r (transport efflux ratio) [3]: 0.3 ± 0.3; P (B > A) ([3]; basolateral to apical): 3 ± 1 × 10^−5 cm/s; r (transport efflux ratio) ([4]; 10 µM cannabinoid in the presence of 10 µM elacridar): 0.7 ± 0.2; P (A > B) of CBDA in the presence of inhibitor [7, 22]: 21 ± 3 × 10^−5 cm/s; P (B > A) of CBDA in the presence of inhibitor [7, 22]: 47 ± 4 × 10^−5 cm/s; P (A > B) of prazosin in the presence of inhibitor ([8]; 10 µM inhibitor, 1 µM prazosin): 18 ± 2 × 10^−2 cm/s; P (B > A) of prazosin in the presence of inhibitor ([8]; 10 µM inhibitor, 1 µM prazosin): 201 ± 8 × 10^−2 cm/s |
| C=C(C)[C@@H]1CCC(C)=C[C@H]1c1c(O)cc(CCCCC)cc1O [CBD, cannabidiol] | 1730 | 717 | 3.62 | 8.07 | 1.5 | ≤ 1 | detected | 250 ± 30 | 0.6 ± 0.2 | 41 ± 5 × 10^−5 cm/s | 52 ± 8 × 10^−5 cm/s | 86 ± 20 × 10^−5 cm/s | BCRP substrates | 1 ± 0.2 | 25 ± 7 × 10^−5 cm/s | 15 ± 3 × 10^−5 cm/s | not P-glycoprotein substrates | 2–4 × | 1.6 ± 0.3 | identified as an inhibitor of BCRP | Cmax ([1]; both, mouse, plasma, po, 25 mg/kg, Cmax, mouse plasma, oral, administered as individual cannabinoid, doses mg/kg: CBD 25, THC 15, THCA 50): 304 ± 28 ng/mL; Cmax ([1]; both, mouse, plasma, po, 25 mg/kg, Cmax, mouse plasma, oral, administered in full-spectrum extract, doses mg/kg: CBD 25, THC 15, THCA 50): 60 ± 6 ng/mL; efflux ratio at 240 min, 10 µM [4, 21]: > 1.5; Effect on BCRP-mediated transport of CBDA ([7]; 10 µM, BCRP MDCK cells, compared to vehicle): Neither CBD nor CBDVA affected CBDA transport via BCRP; r (transport efflux ratio) of CBDA in the presence of inhibitor ([7]; human, 240 min, 10 µM): 5.9 ± 0.1; Bcrp1 substrate status [9]: not a substrate of mouse Bcrp1 |
